From patent US11339161B2, “Triazolo pyridines as modulators of gamma-secretase” (Boehringer Ingelheim International GmbH, priority 2017, dated 2022) come the findings set out here.

A word on the inhibition: it is the drop in the measured response relative to a control, in per cent.

One experiment has as its target T1, AURKA (Aurora A) (Homo sapiens, UniProt O14965).
T1 sequence (O14965 1-403): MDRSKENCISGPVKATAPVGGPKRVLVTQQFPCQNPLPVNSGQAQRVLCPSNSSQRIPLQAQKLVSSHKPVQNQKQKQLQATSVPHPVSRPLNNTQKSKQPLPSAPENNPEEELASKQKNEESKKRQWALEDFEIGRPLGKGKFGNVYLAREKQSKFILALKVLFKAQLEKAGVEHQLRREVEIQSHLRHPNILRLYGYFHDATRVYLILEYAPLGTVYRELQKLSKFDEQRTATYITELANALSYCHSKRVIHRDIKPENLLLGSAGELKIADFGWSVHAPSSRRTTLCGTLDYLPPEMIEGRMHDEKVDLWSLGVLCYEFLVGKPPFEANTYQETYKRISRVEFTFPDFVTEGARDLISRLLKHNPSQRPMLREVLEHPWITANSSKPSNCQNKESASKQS
Description: Z'-LYTE SelectScreen biochemical kinase assay AURKA (Aurora A). The source says:
(§1) Thermo Fisher Scientific SelectScreen™ Biochemical Kinase Profiling Service Z′-LYTE™ Screening Protocol and Assay Conditions Assay Theory
(§2) The […] biochemical assay employs a fluorescence-based, coupled-enzyme format and is based on the differential sensitivity of phosphorylated and non-phosphorylated peptides to proteolytic cleavage. The peptide substrate is labeled with two fluorophores—one at each end—that make up a FRET pair. In the primary reaction, the kinase transfers the gamma-phosphate of ATP to a single tyrosine, serine or threonine residue in a synthetic FRET-peptide. In the secondary reaction, a site-specific protease recognizes and cleaves non-phosphorylated FRET-peptides. Phosphorylation of FRET-peptides suppresses cleavage by the Development Reagent. Cleavage disrupts FRET between the donor (i.e., coumarin) and acceptor (i.e., fluorescein) fluorophores on the FRET-peptide, whereas uncleaved, phosphorylated FRET-peptides maintain FRET. A ratiometric method, which calculates the ratio (Emission Ratio=Coumarin emission (445 nm)/Fluorescein emission (520 nm)) of donor emission to acceptor emission after excitation of the donor fluorophore at 400 nm, is used to quantitate reaction progress, as shown in the equation below. A significant benefit of this ratiometric method for quantitating reaction progress is the elimination of well-to-well variations in FRET-peptide concentration and signal intensities. As a result, the assay yields very high Z′-factor values (>0.7) at a low percent phosphorylation. Both cleaved and uncleaved FRET-peptides contribute to the fluorescence signals and therefore to the Emission Ratio. The extent of phosphorylation of the FRET-peptide can be calculated from the Emission Ratio. The Emission Ratio will remain low if the FRET-peptide is phosphorylated (i.e., no kinase inhibition) and will be high if the FRET-peptide is non-phosphorylated (i.e., kinase inhibition).
(§3) The Test Compounds are screened in 1% DMSO (final) in the well. For 10 point titrations, 3-fold serial dilutions are conducted from the starting concentration of the customer's choosing.
(§4) All Peptide/Kinase Mixtures are diluted to a 2× working concentration in the appropriate Kinase Buffer (see section Kinase Specific Assay Conditions for a complete description).
(§5) All ATP Solutions are diluted to a 4× working concentration in Kinase Buffer (50 mM HEPES pH 7.5, 0.01% BRIJ-35, 10 mM MgCl2, 1 mM EGTA). ATP Km apparent is previously determined using a Z″-LYTE assay.
(§6) The Development Reagent is diluted in Development Buffer (see section Kinase-Specific Assay Conditions—Direct and Cascade for a complete description).
(§7) Bar-coded Corning, low volume NBS, black 384-well plate (Corning Cat. #4514) • 1. 100 nL—100× Test Compound in 100% DMSO • 2. 2.4 μL—Kinase buffer • 3. 5 μL—2× Peptide/Kinase Mixture • 4. 2.5 μL—4×ATP Solution • 5. 30—second plate shake • 6. 60—minute Kinase Reaction incubation at room temperature • 7. 5 μL—Development Reagent Solution • 8. 30—second plate shake • 9. 60—minute Development Reaction incubation at room temperature • 10. Read on fluorescence plate reader and analyze the data Z′-LYTE Assay Controls
(§8) SelectScreen Kinase Profiling Service uses XLfit from IDBS. The dose response curve is curve fit to model number 205 (sigmoidal dose-response model).
The 2×AURKA (Aurora A)/Ser/Thr 01 mixture is prepared in 50 mM HEPES pH 7.5, 0.01% BRIJ-35, 10 mM MgCl2, 1 mM EGTA. The final 10 μL Kinase Reaction consists of 0.91-8.56 ng AURKA (Aurora A) and 2 μM Ser/Thr 01 in 50 mM HEPES pH 7.5, 0.01% BRIJ-35, 10 mM MgCl2, 1 mM EGTA. After the 1 hour Kinase Reaction incubation, 5 μL of a 1:4096 dilution of Development Reagent A is added.

In another experiment the target is CSF1R (FMS) (Homo sapiens, UniProt P07333). Description: Z'-LYTE SelectScreen biochemical kinase assay CSF1R (FMS).
CSF1R (FMS), sequence (P07333 20-972): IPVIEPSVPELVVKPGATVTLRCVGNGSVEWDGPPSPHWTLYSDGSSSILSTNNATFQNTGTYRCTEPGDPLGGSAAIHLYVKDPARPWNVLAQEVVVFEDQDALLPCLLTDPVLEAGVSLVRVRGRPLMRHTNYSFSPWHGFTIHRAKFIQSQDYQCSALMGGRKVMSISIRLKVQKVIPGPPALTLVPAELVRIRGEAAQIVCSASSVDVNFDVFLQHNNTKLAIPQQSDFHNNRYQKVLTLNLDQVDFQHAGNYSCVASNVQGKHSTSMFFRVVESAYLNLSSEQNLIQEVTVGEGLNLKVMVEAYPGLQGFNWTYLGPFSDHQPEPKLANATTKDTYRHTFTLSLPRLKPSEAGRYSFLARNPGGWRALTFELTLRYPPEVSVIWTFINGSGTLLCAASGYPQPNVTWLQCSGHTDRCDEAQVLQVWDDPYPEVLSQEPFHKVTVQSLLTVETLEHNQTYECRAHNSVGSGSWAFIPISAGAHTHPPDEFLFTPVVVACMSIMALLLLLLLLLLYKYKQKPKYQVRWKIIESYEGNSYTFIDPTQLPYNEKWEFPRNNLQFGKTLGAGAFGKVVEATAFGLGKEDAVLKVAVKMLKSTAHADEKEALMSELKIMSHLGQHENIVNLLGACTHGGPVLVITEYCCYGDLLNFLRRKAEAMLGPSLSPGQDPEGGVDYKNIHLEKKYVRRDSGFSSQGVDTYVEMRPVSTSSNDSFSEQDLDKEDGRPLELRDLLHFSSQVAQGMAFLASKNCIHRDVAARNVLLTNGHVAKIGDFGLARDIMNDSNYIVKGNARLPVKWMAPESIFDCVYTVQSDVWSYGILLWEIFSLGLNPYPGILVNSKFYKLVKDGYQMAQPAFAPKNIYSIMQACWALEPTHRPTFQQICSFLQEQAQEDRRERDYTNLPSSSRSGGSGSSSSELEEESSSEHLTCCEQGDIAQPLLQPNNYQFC
Excerpt: as §1, §2, §3, §4, §5, §6, §7, §8
The 2×CSF1R (FMS)/Tyr 01 mixture is prepared in 50 mM HEPES pH 7.5, 0.01% BRIJ-35, 10 mM MgCl2, 1 mM EGTA. The final 10 μL Kinase Reaction consists of 0.2-40 ng CSF1R (FMS) and 2 μM Tyr 01 in 50 mM HEPES pH 7.5, 0.01% BRIJ-35, 10 mM MgCl2, 1 mM EGTA. After the 1 hour Kinase Reaction incubation, 5 μL of a 1:256 dilution of Development Reagent B is added.

A further experiment deals with MAP4K4 (HGK) (Homo sapiens, UniProt O95819). Description: Z'-LYTE SelectScreen biochemical kinase assay MAP4K4 (HGK).
MAP4K4 (HGK), sequence (O95819 whole entry): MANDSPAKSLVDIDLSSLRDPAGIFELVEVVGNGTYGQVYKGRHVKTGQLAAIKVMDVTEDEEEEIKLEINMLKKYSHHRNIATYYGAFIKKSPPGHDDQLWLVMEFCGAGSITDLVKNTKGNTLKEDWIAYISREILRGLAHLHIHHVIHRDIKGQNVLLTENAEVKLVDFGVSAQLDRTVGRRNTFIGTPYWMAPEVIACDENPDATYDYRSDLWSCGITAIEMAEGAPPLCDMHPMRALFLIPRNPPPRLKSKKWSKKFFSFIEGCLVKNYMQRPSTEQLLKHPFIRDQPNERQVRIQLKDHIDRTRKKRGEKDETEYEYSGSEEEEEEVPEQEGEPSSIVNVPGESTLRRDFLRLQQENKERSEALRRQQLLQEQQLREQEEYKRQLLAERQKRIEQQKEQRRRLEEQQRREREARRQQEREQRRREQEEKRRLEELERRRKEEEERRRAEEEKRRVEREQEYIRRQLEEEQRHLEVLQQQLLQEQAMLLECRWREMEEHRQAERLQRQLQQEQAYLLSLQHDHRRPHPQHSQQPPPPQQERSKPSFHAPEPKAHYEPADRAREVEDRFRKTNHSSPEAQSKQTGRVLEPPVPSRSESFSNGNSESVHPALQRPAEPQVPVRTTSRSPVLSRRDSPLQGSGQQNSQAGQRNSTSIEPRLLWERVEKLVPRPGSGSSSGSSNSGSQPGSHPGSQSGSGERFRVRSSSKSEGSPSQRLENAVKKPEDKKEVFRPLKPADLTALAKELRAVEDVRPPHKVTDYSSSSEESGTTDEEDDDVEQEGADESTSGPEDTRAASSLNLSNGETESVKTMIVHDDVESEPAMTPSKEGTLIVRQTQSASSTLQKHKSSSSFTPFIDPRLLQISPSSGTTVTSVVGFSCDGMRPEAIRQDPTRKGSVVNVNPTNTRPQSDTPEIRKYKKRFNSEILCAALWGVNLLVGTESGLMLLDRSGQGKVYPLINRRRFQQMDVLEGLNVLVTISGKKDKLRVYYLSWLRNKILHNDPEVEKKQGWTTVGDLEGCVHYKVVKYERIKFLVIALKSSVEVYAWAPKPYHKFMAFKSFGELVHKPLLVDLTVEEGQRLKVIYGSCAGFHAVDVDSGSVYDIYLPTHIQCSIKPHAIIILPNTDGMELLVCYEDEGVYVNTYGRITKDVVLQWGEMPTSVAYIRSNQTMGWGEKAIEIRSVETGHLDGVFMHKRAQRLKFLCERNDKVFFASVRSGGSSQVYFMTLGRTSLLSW
Excerpt: as §1, §2, §3, §4, §5, §6, §7, §8
The 2×MAP4K4 (HGK)/Ser/Thr 07 mixture is prepared in 50 mM HEPES pH 7.5, 0.01% BRIJ-35, 10 mM MgCl2, 1 mM EGTA. The final 10 μL Kinase Reaction consists of 0.36-1.82 ng MAP4K4 (HGK) and 2 μM Ser/Thr 07 in 50 mM HEPES pH 7.5, 0.01% BRIJ-35, 10 mM MgCl2, 1 mM EGTA. After the 1 hour Kinase Reaction incubation, 5 μL of a 1:45000 dilution of Development Reagent A is added.

[1] abbreviates: 10 μmolar compound concentration, ATP at Km app, read-out: AURKA (Aurora A) inhibition.
Where [2] appears, read: read-out: % Inhibition mean AURKA (Aurora A).
The mark [3] stands for this setting: 10 μmolar compound concentration, ATP at Km app, read-out: CSF1R (FMS) inhibition.
The mark [4] stands for this setting: read-out: % Inhibition mean CSF1R (FMS).
Setting [5] is: 10 μmolar compound concentration, ATP at Km app, read-out: MAP4K4 (HGK) inhibition.
The mark [6] stands for this setting: read-out: % Inhibition mean MAP4K4 (HGK).

Where two headings read alike, the source gives them in different places.

In the case of `Cc1cc(F)ccc1-c1cccn2nc(NC3CCc4c(cnn4C)C3)nc12` (stereo not drawn) [Example 10, [8-(4-fluoro-2-methyl-phenyl)-[1,2,4]triazolo[1,5-a]pyridine-2-yl]-(1-methyl-4,5,6,7-tetrahydro-1H-indazol-5-yl)-amine], the inhibition at 10 µM on AURKA (Aurora A) (setting [1]) is under 40%; at AURKA (Aurora A) (setting [2]) it was 4%; on CSF1R (FMS) (setting [3]), 40 to 80%; on CSF1R (FMS) (setting [4]), 42%; on MAP4K4 (HGK) (setting [5]), under 40%; at MAP4K4 (HGK) (setting [6]), 37%.

For the molecule `CCCCCn1ncc2c1CCC(Nc1nc3c(-c4ccc(F)cc4C)cccn3n1)C2` (stereo not drawn) [Example 47, [8-(4-fluoro-2-methyl-phenyl)-[1,2,4]triazolo[1,5-a]pyridine-2-yl]-(1-pentyl-4,5,6,7-tetrahydro-1H-indazol-5-yl)-amine], the inhibition at 10 µM was under 40% at AURKA (Aurora A) (setting [1]); 10% on AURKA (Aurora A) (setting [2]); under 40% on CSF1R (FMS) (setting [3]); 15% on CSF1R (FMS) (setting [4]); under 40% at MAP4K4 (HGK) (setting [5]); 32% on MAP4K4 (HGK) (setting [6]).

As for `CCn1ncc2c1CCC(Nc1nc3c(-c4ccc(C)nc4)cccn3n1)C2` (stereo not drawn) [Example 67, (1-Ethyl-4,5,6,7-tetrahydro-1H-indazol-5-yl)-[8-(6-methyl-pyridin-3-yl)-[1,2,4]triazolo[1,5-a]pyridine-2-yl]-amine], the inhibition at 10 µM is under 40% at AURKA (Aurora A) (setting [1]); 6% at AURKA (Aurora A) (setting [2]); under 40% on CSF1R (FMS) (setting [3]); 29% at CSF1R (FMS) (setting [4]); 40 to 80% on MAP4K4 (HGK) (setting [5]); 49% at MAP4K4 (HGK) (setting [6]).

`CCn1ncc2c1CCC(Nc1nc3c(-c4cncc(OC)c4)cccn3n1)C2` (stereo not drawn) [Example 70, (1-Ethyl-4,5,6,7-tetrahydro-1H-indazol-5-yl)-[8-(5-methoxy-pyridin-3-yl)-[1,2,4]triazolo[1,5-a]pyridine-2-yl]-amine]: the inhibition at 10 µM at AURKA (Aurora A) (setting [1]) was 40 to 80%; on AURKA (Aurora A) (setting [2]), 51%; at CSF1R (FMS) (setting [3]), over 80%; on CSF1R (FMS) (setting [4]) it was 83%; at MAP4K4 (HGK) (setting [5]), 40 to 80%; at MAP4K4 (HGK) (setting [6]) it was 56%.

For the molecule `CCc1nn(C)c2c1CCC(Nc1nc3c(-c4ccc(F)cc4C)cccn3n1)C2` (stereo not drawn) [Example 54, (3-Ethyl-1-methyl-4,5,6,7-tetrahydro-1H-indazol-6-yl)-[8-(4-fluoro-2-methyl-phenyl)-[1,2,4]triazolo[1,5-a]pyridine-2-yl]-amine], the inhibition at 10 µM at AURKA (Aurora A) (setting [1]) is under 40%; on AURKA (Aurora A) (setting [2]) it was 18%; at CSF1R (FMS) (setting [3]), under 40%; on CSF1R (FMS) (setting [4]) it was 27%; on MAP4K4 (HGK) (setting [5]) it was under 40%; at MAP4K4 (HGK) (setting [6]), 25%.

For `CCn1ncc2c1CCC(Nc1nc3c(-c4ccc(F)cc4)cccn3n1)C2` (stereo not drawn) [Example 55, (1-Ethyl-4,5,6,7-tetrahydro-1H-indazol-5-yl)-[8-(4-fluoro-phenyl)-[1,2,4]triazolo[1,5-a]pyridine-2-yl]-amine], the inhibition at 10 µM on AURKA (Aurora A) (setting [1]) is under 40%; on AURKA (Aurora A) (setting [2]), 15%; on CSF1R (FMS) (setting [3]) it was under 40%; on CSF1R (FMS) (setting [4]), 34%; on MAP4K4 (HGK) (setting [5]), 40 to 80%; on MAP4K4 (HGK) (setting [6]) it was 51%.

Regarding `CCn1ncc2c1CCC(Nc1nc3c(-c4ccc(OC)nc4)cccn3n1)C2` (stereo not drawn) [Example 71, (1-Ethyl-4,5,6,7-tetrahydro-1H-indazol-5-yl)-[8-(6-methoxy-pyridin-3-yl)-[1,2,4]triazolo[1,5-a]pyridine-2-yl]-amine], the inhibition at 10 µM at AURKA (Aurora A) (setting [1]) is 40 to 80%; at AURKA (Aurora A) (setting [2]), 42%; on CSF1R (FMS) (setting [3]), 40 to 80%; on CSF1R (FMS) (setting [4]) it was 62%; on MAP4K4 (HGK) (setting [5]) it was under 40%; at MAP4K4 (HGK) (setting [6]), 16%.

As to `CCn1ncc2c1CC[C@@H](Nc1nc3c(-c4ccc(F)c(Cl)c4)cccn3n1)C2` [Example R-61, (R)-[8-(3-Chloro-4-fluoro-phenyl)-[1,2,4]triazolo[1,5-a]pyridine-2-yl]-(1-ethyl-4,5,6,7-tetrahydro-1H-indazol-5-yl)-amine], the inhibition at 10 µM at AURKA (Aurora A) (setting [1]) is under 40%; on AURKA (Aurora A) (setting [2]), -8%; on CSF1R (FMS) (setting [3]) it was under 40%; at CSF1R (FMS) (setting [4]) it was 18%; at MAP4K4 (HGK) (setting [5]), under 40%; at MAP4K4 (HGK) (setting [6]), 24%.
